From ChEMBL document CHEMBL1201862, “PubChem BioAssay data set” (2004)
Active and inactive are the calls of the source.

How the values were obtained:
P388/ADR = assay: cells; format: functional; details: Mus musculus
SN12K1 = assay: cells; format: functional; details: Homo sapiens
P388 = assay: cells; format: functional; details: Mus musculus
[1] = target: T1, RNA-binding protein pos-1 (Caenorhabditis elegans, UniProt G5EF15); assay: disruptors of C. elegans POS-1 RNA interaction – biochemical, fluorescence polarization, dose response (AID 1964);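 note: purified POS-1 fused to maltose binding protein made in E. coli; potency of compounds blocking POS-1 binding to fluorescent RNA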
T1 sequence (G5EF15 whole entry): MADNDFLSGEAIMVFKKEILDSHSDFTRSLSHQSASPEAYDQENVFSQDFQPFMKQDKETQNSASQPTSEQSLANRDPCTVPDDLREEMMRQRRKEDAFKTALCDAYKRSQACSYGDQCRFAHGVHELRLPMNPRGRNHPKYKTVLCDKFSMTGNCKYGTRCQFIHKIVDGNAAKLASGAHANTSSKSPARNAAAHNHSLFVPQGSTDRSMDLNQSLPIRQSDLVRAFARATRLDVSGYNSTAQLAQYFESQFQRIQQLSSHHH

[2] = Luminescence Cell-Based Dose Confirmation HTS to Identify Activators of 5'UTR Stem-Loop Driven Alpha-Synuclein mRNA Translation in H4 Neuroglioblastoma Cells. [Related pubchem assays: 1829 (Project Summary), 1814 (Primary HTS)]; format: functional
[3] = Luminescence Cell-Based Dose Response HTS to Identify Activators of Luciferase Translation or Activity in H4 […] Cells. [Related pubchem assays: 1829 (Project Summary), 1814 (Primary HTS)]; format: functional
H4 = assay: Luminescence Cell-Based Dose Response HTS to Identify Activators of 5'UTR Stem-Loop Driven Prion Protein mRNA Translation in H4 Neuroglioblastoma Cells. [Related pubchem assays: 1829 (Project Summary), 1814 (Primary HTS)]; format: functional; details: Homo sapiens
[4] = target: T2, Zinc finger protein mex-5 (Caenorhabditis elegans, UniProt Q9XUB2); assay: potency of MEX-5 RNA-binding blockers – biochemical, C. elegans, fluorescence polarization, dose response (AID 1960)
T2 sequence (Q9XUB2 whole entry): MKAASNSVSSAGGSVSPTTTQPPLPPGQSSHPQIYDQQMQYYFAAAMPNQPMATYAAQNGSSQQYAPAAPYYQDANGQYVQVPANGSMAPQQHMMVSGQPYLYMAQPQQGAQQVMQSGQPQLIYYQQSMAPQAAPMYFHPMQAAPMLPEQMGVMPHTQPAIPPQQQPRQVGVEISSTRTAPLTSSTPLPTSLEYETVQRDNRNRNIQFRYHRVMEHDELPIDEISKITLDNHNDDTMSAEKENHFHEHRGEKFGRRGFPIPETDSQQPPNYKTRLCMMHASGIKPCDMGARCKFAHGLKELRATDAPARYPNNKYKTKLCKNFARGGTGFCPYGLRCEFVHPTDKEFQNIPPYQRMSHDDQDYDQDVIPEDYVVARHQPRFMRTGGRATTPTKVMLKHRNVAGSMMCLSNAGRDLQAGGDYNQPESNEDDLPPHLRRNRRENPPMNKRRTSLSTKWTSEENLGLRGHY

[5] = reduction of Shn3 3'UTR-driven luciferase in osteoblasts – cell-based, Clone20 osteoblasts, firefly luciferase, cherry-picked, dose response (AID 624132); format: functional;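 note: firefly luciferase luminescence from reporter carrying the Shn3 3'UTR in osteoblasts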
[6] = loss of viability in HepG2 cells – cell-based, CellTiter-Glo, cherry-picked, cytotoxicity control for Shn3 inhibitor project, dose response (AID 624134); format: functional
[7] = non-specific 3'UTR reporter inhibition in Clone20-Shn3RL – cell-based, Renilla luciferase, cherry-picked, counter-screen for Shn3 inhibitor project, dose response (AID 624133); format: functional
cells = format: functional
Genome polyprotein = Genome polyprotein (dengue virus type 2, UniProt P29990); assay: flavivirus cap methylation enzyme inhibition – biochemical, confirmation dose response, primary screen (AID 588689); format: functional
Genome polyprotein, sequence (P29990 2492-3391 limits assumed): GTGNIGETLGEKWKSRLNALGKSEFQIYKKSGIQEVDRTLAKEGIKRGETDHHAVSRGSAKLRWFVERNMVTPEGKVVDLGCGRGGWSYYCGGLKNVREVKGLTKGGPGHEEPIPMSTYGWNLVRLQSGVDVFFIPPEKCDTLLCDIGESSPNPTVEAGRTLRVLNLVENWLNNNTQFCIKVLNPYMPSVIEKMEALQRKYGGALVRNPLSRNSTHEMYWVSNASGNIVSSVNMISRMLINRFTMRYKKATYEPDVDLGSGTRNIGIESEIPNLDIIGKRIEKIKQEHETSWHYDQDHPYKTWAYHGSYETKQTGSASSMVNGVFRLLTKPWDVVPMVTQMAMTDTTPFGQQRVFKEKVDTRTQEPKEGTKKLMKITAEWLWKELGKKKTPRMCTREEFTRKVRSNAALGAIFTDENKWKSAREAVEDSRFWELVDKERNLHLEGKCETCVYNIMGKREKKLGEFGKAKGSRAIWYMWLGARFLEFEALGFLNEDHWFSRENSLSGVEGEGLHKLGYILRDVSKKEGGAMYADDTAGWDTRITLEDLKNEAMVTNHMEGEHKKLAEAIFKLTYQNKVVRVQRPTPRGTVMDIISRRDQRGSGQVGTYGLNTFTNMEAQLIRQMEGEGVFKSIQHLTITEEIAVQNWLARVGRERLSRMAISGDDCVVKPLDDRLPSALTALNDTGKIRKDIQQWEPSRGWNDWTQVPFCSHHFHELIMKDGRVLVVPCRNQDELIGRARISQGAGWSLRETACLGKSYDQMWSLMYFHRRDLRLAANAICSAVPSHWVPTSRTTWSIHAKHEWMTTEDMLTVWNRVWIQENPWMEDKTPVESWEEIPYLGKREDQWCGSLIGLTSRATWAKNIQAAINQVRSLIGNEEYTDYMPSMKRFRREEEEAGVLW

Nonstructural protein 1 = Nonstructural protein 1 (Influenza A virus, UniProt Q194T2); format: functional, Influenza A virus (A/California/07/2009(H1N1))
Nonstructural protein 1, sequence (Q194T2 whole entry): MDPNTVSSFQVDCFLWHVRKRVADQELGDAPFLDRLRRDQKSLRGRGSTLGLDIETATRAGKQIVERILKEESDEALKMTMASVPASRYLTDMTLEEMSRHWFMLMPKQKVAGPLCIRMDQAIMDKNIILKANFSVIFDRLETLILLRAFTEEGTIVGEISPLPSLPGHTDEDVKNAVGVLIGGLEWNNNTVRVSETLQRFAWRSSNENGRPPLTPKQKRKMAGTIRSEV

Fatty acid synthase = Fatty acid synthase (Homo sapiens, UniProt P49327); assay: inhibition of human FAS-TE enzyme activity – biochemical, kinetic fluorescence intensity, dose response (AID 624326); format: functional;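 note: rate of fluorescence rise from hydrolysis of a fluorogenic O-methyl fluorescein ester substrate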
Fatty acid synthase, sequence (P49327 whole entry): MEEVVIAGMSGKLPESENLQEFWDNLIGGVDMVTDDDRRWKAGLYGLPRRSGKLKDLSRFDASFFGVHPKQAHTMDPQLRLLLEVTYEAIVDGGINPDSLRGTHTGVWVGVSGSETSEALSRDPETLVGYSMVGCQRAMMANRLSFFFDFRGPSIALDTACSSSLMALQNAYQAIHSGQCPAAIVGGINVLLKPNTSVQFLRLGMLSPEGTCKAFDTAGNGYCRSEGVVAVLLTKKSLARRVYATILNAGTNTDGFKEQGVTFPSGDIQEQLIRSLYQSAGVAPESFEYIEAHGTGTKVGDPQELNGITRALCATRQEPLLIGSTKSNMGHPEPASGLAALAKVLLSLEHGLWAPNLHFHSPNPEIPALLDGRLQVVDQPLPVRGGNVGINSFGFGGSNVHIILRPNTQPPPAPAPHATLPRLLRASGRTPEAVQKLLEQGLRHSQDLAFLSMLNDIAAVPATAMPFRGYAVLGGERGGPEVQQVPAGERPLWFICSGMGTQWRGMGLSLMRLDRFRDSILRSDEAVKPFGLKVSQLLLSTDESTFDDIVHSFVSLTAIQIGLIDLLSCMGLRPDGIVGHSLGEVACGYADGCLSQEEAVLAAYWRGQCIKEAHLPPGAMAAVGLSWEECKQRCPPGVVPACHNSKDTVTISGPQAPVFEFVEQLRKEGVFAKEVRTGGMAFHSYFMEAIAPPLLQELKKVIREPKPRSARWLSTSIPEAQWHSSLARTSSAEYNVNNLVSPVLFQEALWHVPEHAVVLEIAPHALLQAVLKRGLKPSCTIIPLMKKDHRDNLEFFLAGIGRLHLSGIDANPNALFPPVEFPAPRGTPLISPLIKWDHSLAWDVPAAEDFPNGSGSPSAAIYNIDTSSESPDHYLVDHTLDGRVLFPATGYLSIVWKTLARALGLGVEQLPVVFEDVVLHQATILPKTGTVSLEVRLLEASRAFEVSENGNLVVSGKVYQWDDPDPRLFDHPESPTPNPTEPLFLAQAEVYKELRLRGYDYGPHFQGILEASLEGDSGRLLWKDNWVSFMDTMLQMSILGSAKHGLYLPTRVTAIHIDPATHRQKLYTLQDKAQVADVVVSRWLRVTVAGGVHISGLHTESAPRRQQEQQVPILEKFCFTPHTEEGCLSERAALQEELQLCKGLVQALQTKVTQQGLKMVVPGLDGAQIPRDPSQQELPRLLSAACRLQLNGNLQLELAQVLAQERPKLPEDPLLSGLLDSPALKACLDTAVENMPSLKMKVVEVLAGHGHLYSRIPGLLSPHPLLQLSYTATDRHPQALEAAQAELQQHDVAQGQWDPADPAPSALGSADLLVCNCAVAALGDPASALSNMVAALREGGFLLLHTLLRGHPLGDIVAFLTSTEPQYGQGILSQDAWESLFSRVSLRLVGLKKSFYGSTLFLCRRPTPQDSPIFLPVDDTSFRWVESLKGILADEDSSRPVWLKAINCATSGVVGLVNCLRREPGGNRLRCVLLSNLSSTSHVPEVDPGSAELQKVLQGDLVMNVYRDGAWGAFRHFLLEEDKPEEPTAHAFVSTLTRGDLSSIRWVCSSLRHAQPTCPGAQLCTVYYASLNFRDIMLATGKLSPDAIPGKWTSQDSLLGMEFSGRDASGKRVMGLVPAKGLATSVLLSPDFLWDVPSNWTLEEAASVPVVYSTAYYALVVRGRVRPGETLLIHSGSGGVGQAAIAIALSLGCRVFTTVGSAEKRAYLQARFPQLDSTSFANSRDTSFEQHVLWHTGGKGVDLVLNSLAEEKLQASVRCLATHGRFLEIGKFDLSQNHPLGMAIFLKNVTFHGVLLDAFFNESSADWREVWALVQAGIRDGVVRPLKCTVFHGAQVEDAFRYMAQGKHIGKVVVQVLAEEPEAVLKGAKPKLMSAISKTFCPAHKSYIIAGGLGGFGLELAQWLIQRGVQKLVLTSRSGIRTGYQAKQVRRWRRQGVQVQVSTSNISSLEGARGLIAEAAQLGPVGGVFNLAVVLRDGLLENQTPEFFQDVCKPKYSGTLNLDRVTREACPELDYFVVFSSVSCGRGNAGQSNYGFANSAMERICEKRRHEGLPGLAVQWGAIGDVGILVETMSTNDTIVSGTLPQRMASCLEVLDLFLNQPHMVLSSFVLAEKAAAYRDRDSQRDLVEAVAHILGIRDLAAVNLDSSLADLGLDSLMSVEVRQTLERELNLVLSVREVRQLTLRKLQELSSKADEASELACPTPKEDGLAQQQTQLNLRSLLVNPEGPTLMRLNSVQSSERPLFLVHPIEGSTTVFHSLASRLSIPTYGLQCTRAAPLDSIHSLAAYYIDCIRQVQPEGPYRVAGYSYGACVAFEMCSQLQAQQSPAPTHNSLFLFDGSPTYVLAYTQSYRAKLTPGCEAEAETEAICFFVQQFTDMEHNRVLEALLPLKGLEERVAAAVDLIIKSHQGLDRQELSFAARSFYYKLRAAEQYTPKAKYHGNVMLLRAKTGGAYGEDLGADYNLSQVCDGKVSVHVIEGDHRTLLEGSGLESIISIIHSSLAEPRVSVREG

[8] = Trypanosoma cruzi growth suppression in host cells – NIH3T3 host cells, beta-gal luminescence, confirmation (AID 2044); format: functional, cell-based;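 note: intracellular parasites grown in NIH/3T3 mouse fibroblasts as host cells; luminescent beta-galactosidase reporter signal from transgenic T. cruzi replicating inside host cells; inhibitors lower the luminescence signal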
[9] = NIH3T3 cell viability loss – ATP luminescence, mouse fibroblasts, counter-screen, dose response (AID 2010); format: functional, cell-based;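 note: cells exposed to compound for about 90 hours before reading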
[10] = target: T3, Rac GTPase-activating protein 1 (Homo sapiens, UniProt Q9H0H5); assay: blockers of MgcRacGAP-driven Rac1 GTP hydrolysis – biochemical, ADP Hunter fluorescence, primary and confirmatory, confirmation (AID 624330); format: functional
T3 sequence (Q9H0H5 whole entry): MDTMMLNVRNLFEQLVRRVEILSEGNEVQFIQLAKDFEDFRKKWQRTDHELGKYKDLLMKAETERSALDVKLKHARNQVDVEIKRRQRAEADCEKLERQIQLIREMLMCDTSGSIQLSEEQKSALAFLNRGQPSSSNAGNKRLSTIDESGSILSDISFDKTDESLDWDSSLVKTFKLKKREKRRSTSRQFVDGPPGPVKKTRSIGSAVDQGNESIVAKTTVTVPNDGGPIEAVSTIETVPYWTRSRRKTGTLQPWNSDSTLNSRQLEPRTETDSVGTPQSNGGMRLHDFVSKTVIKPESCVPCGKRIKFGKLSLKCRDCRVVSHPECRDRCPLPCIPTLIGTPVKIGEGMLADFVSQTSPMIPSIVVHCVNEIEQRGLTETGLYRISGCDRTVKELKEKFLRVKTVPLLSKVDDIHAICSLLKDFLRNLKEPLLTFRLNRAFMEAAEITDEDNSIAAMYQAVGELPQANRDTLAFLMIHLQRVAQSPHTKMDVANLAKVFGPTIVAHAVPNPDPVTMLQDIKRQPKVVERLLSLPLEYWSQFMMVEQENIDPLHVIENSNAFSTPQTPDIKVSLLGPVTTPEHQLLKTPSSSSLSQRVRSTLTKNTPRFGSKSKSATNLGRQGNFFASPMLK

[11] = target: Luciferin 4-monooxygenase (Photinus pyralis, UniProt P08659); assay: inhibition of purified Photinus pyralis luciferase – biochemical, luminescence, dose response (AID 1891)
Luciferin 4-monooxygenase, sequence (P08659 whole entry): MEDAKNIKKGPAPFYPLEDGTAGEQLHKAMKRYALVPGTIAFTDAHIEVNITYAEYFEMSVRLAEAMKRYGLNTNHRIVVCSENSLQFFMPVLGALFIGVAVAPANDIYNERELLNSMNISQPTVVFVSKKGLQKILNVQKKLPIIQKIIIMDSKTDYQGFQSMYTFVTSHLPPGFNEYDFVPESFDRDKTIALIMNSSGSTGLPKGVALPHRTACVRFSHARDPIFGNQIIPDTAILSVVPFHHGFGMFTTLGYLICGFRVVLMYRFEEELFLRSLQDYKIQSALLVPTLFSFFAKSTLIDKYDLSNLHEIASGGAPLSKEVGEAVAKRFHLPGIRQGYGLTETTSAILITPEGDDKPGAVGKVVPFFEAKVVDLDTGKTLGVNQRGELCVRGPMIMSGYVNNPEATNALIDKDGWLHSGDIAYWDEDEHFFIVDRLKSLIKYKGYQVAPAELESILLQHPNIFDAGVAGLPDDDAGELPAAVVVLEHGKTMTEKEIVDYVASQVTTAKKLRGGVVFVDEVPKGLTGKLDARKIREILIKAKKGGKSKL

[12] = Luminescence Cell-Based Dose Confirmation HTS to Identify Inhibitors of Platelet Dense Granule Release. [Related pubchem assays: 1663 (Primary HTS), 1678 (Summary of Project)]; format: functional

## O=C(O)CCC(NC(=O)c1ccc(Nc2nc3ccc(C(F)(F)F)cc3nc2-c2ccccc2)cc1)C(=O)O (stereo unspecified)
P388/ADR
  GI50: 71.1 µM (inactive)
SN12K1
  GI50: > 100 µM (inactive)
P388
  GI50: 35 µM (inactive)

## CC(=O)c1ccc2c(c1)C1C=CCC1C(c1ccncc1)N2 (stereo unspecified)
[1]
  EC50: > 300 µM (not active)
[2]
  EC50: 14.4 µM (active)
[3]
  EC50: 9.61 µM (active)
H4
  EC50: 25.5 µM (active)
[4]
  EC50: 47.7 µM (active)

## CN(C)/N=N/c1[nH]cnc1C(N)=O [DACARBAZINE]
P388/ADR
  GI50: 40.3 µM (inactive)
SN12K1
  GI50: 28.6 µM (inactive)
P388
  GI50: 19.3 µM (inactive)

## C=C1CC(COc2cc(=O)oc3ccccc23)(c2ccccc2)OC1=O (stereo unspecified)
[5]
  AC50: 3.93 µM (active)
[6]
  AC50: 13.7 µM (active)
[7]
  AC50: 7.58 µM (active)

## Cn1cccc1/C=N/NC(=O)c1ccncc1
cells
  IC50: 0.75 µM (active)

## CN(C)CCNCc1c2ccccc2c(CNCCN(C)C)c2ccccc12
P388/ADR
  GI50: > 100 µM (inactive)
SN12K1
  GI50: 25 µM (inactive)
P388
  GI50: 36.9 µM (inactive)

## O=C1ON=C(c2ccc([N+](=O)[O-])cc2)/C1=C/c1ccccc1O
Genome polyprotein
  IC50: 32.4 µM (active)

## Nc1nc(=O)n(C2OC(CO)C(O)C2O)cc1F (stereo unspecified)
P388/ADR
  GI50: 0.016 µM (active)
SN12K1
  GI50: 0.0705 µM (active)
P388
  GI50: < 0.0107 µM (active)

## CC1[C@@H]2CC=C3[C@H]4CCC5Cc6nc7c(nc6C[C@@]5(C)C4(O)CC(=O)[C@]32CO[C@]12OC(C)(C)CC2O)CC1CC[C@@H]2C3=C[C@H]4O[C@@]5(O[C@@](C)(CO)C[C@@H]5O)C(C)[C@@]4(O)[C@]3(C)[C@@H](O)CC2[C@]1(C)C7 (stereo partly specified)
P388/ADR
  GI50: 0.00879 µM (active)
P388
  GI50: 0.00036 µM (active)

## Cc1cc(C(=O)N/N=C/c2cc([N+](=O)[O-])cc(C)c2O)[nH]n1
Nonstructural protein 1
  IC50: 8.76 µM (active)
Fatty acid synthase
  IC50: 11.8 µM (active)

## CC(C)(C)OC(=O)NCCCCCNC(=O)c1[nH]cnc1C(=O)NCc1ccc(CNC(=O)OC(C)(C)C)cc1
[5]
  AC50: 3.95 µM (active)
[6]
  AC50: > 70 µM (inactive)
[7]
  AC50: 8.62 µM (active)

## CCOC(=O)c1cc(C)n(CCc2ccccc2)c1C
[2]
  EC50: > 120 µM (not active)
[3]
  EC50: 15.7 µM (active)
H4
  EC50: > 120 µM (not active)

## C=C1C(=O)OC2CC3(C)OC3C3OC3C3=CC(OC3=O)C12 (stereo unspecified)
[5]
  AC50: 1.45 µM (active)
[6]
  AC50: 19.2 µM (active)
[7]
  AC50: 1.86 µM (active)

## Cn1c(-c2ccccc2)cc(-c2cccs2)c1-c1cccs1
P388/ADR
  GI50: 33.2 µM (inactive)
SN12K1
  GI50: 18.1 µM (inactive)
P388
  GI50: 10.8 µM (inactive)

## Cc1ccc(S(=O)(=O)NCc2ccc3c(c2)cc(C)n3C)cc1
[8]
  EC50: 3.2 µM (active)
[9]
  EC50: > 60 µM (not active)
Nonstructural protein 1
  IC50: 86.6 µM (active)

## CCN(CC)CCNC(=O)c1nn(-c2ccc(C)cc2)c(=O)c2c1c1ccccc1n2C
[2]
  EC50: 15 µM (active)
[3]
  EC50: > 120 µM (not active)
H4
  EC50: 61.3 µM (active)
[8]
  EC50: 0.157 µM (active)
[9]
  EC50: > 30 µM (not active)

## O=C(N/N=C/c1cccc2nccnc12)c1ccncc1
cells
  IC50: 0.21 µM (active)

## O[C@H]1[C@H](O)[C@@H](O)CN2CC[C@H](O)[C@H]12 [CASTANOSPERMINE]
P388/ADR
  GI50: > 91 µM (inactive)
SN12K1
  GI50: > 100 µM (inactive)
P388
  GI50: > 100 µM (inactive)

## CCN1CC2(CO)CCC(OC)C34C5CC6C(OC)CC(O)(C5C6OC)C(O)(C(OC)C23)C14 (stereo unspecified)
P388/ADR
  GI50: > 80.7 µM (inactive)
SN12K1
  GI50: > 375 µM (inactive)
P388
  GI50: > 174 µM (inactive)

## COc1ccc(C(=O)C(C)OC(=O)c2cccc(S(=O)(=O)Nc3cc(Cl)c(OC)cc3OC)c2)cc1 (stereo unspecified)
[5]
  AC50: 5.54 µM (active)
[6]
  AC50: > 70 µM (inactive)
[7]
  AC50: 28.6 µM (active)

## c1ccc(-c2ccccc2OCCCCn2ccnc2)cc1
cells
  IC50: 18.1 µM (active)
[10]
  IC50: 127 µM (active)

## O=C(N/N=C/C=C/c1ccccc1[N+](=O)[O-])c1ccncc1
cells
  IC50: 0.4 µM (active)

## O=C(/C=C/c1ccccc1Cl)Nc1ccncc1
[2]
  EC50: 26.2 µM (active)
[3]
  EC50: 56.2 µM (active)
H4
  EC50: 0.524 µM (active)
[11]
  EC50: 20.6 µM (active)
[12]
  EC50: 26.7 µM (active)

## O=C(N/N=C/c1ccccn1)c1cccc(S(=O)(=O)Nc2ccccc2Cl)c1
cells
  IC50: 47.1 µM (active)

## Cc1cc(-c2sccc2Br)nc(-n2cccc2)n1
[2]
  EC50: > 120 µM (not active)
[3]
  EC50: 13.3 µM (active)
H4
  EC50: 9.52 µM (active)

## O=C(Nc1ccccc1F)c1ccc2nc(N3C(=O)CCC3=O)sc2c1
[2]
  EC50: 29.8 µM (active)
[3]
  EC50: 32.5 µM (active)
H4
  EC50: 8.54 µM (active)

## CCCOC1CCCN(C(=O)c2cc(COc3cncc(Cl)c3)on2)C1 (stereo unspecified)
[2]
  EC50: 3.46 µM (active)
[3]
  EC50: 47.5 µM (active)
H4
  EC50: 59.7 µM (active)

## COc1cc(O)c2c(=O)c(-c3ccc(O[C@@H]4O[C@H](CO)[C@@H](O)[C@H](O)[C@H]4O)cc3)coc2c1
[2]
  EC50: 0.25 µM (active)
[3]
  EC50: 38.6 µM (active)
H4
  EC50: 21.2 µM (active)

## O=CNc1cccc2c3c([nH]c12)CCCCCC3
P388/ADR
  GI50: 73.1 µM (inactive)
SN12K1
  GI50: > 100 µM (inactive)
P388
  GI50: > 65.3 µM (inactive)

## CCCCNC(=O)COC(=O)c1cc(Br)ccc1Cl
cells
  IC50: 9.24 µM (active)
